In ChEMBL document CHEMBL1201862, “PubChem BioAssay data set” (2004):
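1) Cells in 96-well plates. 2) Compound, 48 h, 5 concentrations. 3) Linear interpolation between surrounding doses. 4) Unreached endpoint = highest concentration. GI50 is the concentration that inhibits growth by half.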 Calls of active or inactive are those of the source. Cut-off read from the data, not from the text of the source: active = GI50 up to about 1.1 µM and inactive = higher.

Assays:
Experiment in all cases: growth of human tumour cells (NCI), 48 h
OVCAR-5 = test system: OVCAR-5
CAKI-1 = test system: CAKI-1
A498 = test system: A498
IGROV-1 = test system: IGROV-1
ACHN = test system: ACHN
UACC-62 = test system: UACC-62
SF-295 = test system: SF-295
HT-29 = test system: HT-29
UACC-257 = test system: UACC-257
SF-268 = test system: SF-268
NCI/ADR-RES = test system: NCI/ADR-RES
U-251 = test system: U-251
NCI-H23 = test system: NCI-H23
PC-3 = test system: PC-3
SK-OV-3 = test system: SK-OV-3
SK-MEL-2 = test system: SK-MEL-2
SK-MEL-5 = test system: SK-MEL-5
MOLT-4 = test system: MOLT-4
RPMI-8226 = test system: RPMI-8226
HL-60 = test system: HL-60

Measured: GI50

Cc1cc2nc3c(N)nn(CCN(C)C)c3nc2cc1C
inactive: OVCAR-5 52 µM | CAKI-1 39.3 µM | A498 38.3 µM | IGROV-1 27 µM | ACHN 28.4 µM | UACC-62 39.5 µM | SF-295 78.7 µM | HT-29 27.4 µM | UACC-257 41.7 µM | SF-268 38.5 µM | NCI/ADR-RES 33.3 µM | U-251 33.1 µM | NCI-H23 38.2 µM | PC-3 44.3 µM | SK-OV-3 45.2 µM | SK-MEL-2 39 µM | SK-MEL-5 24.6 µM | MOLT-4 41.8 µM | RPMI-8226 63.7 µM

Brc1cccc(C2(CCCC3(c4cccc(Br)n4)OCCO3)OCCO2)n1
inactive: OVCAR-5 > 100 µM | CAKI-1 > 100 µM | A498 > 100 µM | IGROV-1 > 100 µM | ACHN > 100 µM | SF-295 68.7 µM | UACC-257 > 100 µM | SF-268 21.2 µM | NCI/ADR-RES > 100 µM | NCI-H23 > 100 µM | PC-3 > 100 µM | SK-OV-3 > 100 µM | SK-MEL-2 > 100 µM | SK-MEL-5 > 100 µM | MOLT-4 > 100 µM | RPMI-8226 > 100 µM

O=C1OC2(C(F)(F)F)Oc3ccccc3CN2C12CCCCC2 (stereo not drawn)
inactive: OVCAR-5 22 µM | CAKI-1 18.7 µM | A498 53.8 µM | IGROV-1 48.4 µM | ACHN 19.7 µM | UACC-62 28 µM | SF-295 21.1 µM | HT-29 23.7 µM | UACC-257 27 µM | SF-268 35.6 µM | NCI/ADR-RES 31.1 µM | U-251 26 µM | NCI-H23 25.4 µM | PC-3 27.6 µM | HL-60 16.5 µM | SK-OV-3 26.7 µM | MOLT-4 18.1 µM

O=C(c1ccco1)C1CC(c2ccc3ccccc3c2O)=NN1 (stereo not drawn)
inactive: OVCAR-5 > 100 µM | CAKI-1 > 100 µM | A498 > 100 µM | IGROV-1 > 100 µM | ACHN > 100 µM | UACC-62 > 100 µM | SF-295 55.8 µM | HT-29 86.5 µM | UACC-257 62.2 µM | SF-268 > 100 µM | NCI/ADR-RES 91.4 µM | U-251 > 100 µM | NCI-H23 > 100 µM | PC-3 70.8 µM | SK-OV-3 > 100 µM | SK-MEL-2 71 µM | SK-MEL-5 89.5 µM | MOLT-4 36.7 µM | RPMI-8226 42.9 µM

O=S(=O)(O)c1cc(S(=O)(=O)O)c2c(/N=N/c3ccccc3)c(O)ccc2c1
inactive: OVCAR-5 > 100 µM | CAKI-1 > 100 µM | A498 > 100 µM | IGROV-1 > 100 µM | UACC-62 > 100 µM | SF-295 > 100 µM | HT-29 > 100 µM | UACC-257 > 100 µM | SF-268 > 100 µM | NCI/ADR-RES > 100 µM | U-251 > 100 µM | NCI-H23 > 100 µM | PC-3 > 100 µM | SK-OV-3 > 100 µM | SK-MEL-2 > 100 µM | SK-MEL-5 > 100 µM | MOLT-4 > 100 µM | RPMI-8226 > 100 µM

Cn1c(O)c(C2=Nc3ccccc3C2=O)c2ccccc21
inactive: OVCAR-5 > 100 µM | CAKI-1 > 100 µM | A498 > 100 µM | IGROV-1 > 100 µM | ACHN > 100 µM | UACC-62 > 100 µM | SF-295 > 100 µM | HT-29 > 100 µM | UACC-257 > 100 µM | SF-268 > 100 µM | NCI/ADR-RES > 100 µM | U-251 > 100 µM | NCI-H23 > 100 µM | PC-3 > 100 µM | SK-OV-3 > 100 µM | SK-MEL-2 > 100 µM | SK-MEL-5 > 100 µM | MOLT-4 > 100 µM | RPMI-8226 > 100 µM
